Measured values reported in the supplement of paper PMC4932681.

What was measured:
[1] = test system: MCF-7; test: drug sensitivity score (DSS) (DSS (dimensionless)); higher = more sensitive; extreme values may be limits of the assay; settings: 72 h
Method: (§1)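 FIMM FO2B library drugs were tested at 5 concentrations (10,000-fold range) for 72 h, with CellTiter-Glo viability normalised to DMSO and benzethonium chloride controls. The Drug Sensitivity Score (DSS) is computed from the fitted logistic dose-response curve (area-based; 0 = inactive). Resistant lines and the 'in 1µM tamoxifen' arms were tested in 1 µM 4-OH-tamoxifen.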

[2] = test system: BT-474; test: as above; settings: 72 h
Method: as §1

[3] = test system: MCF-7 Tam1; test: as above; settings: 4-OH-tamoxifen in medium 1 µM; 72 h
Method: as §1

[4] = test system: BT-474 Tam2; test: as above; settings: 4-OH-tamoxifen in medium 1 µM; 72 h
Method: as §1

[5] = test system: T-47D Tam1; test: as above; settings: 4-OH-tamoxifen in medium 1 µM; 72 h
Method: as §1

[6] = test system: ZR-75-1 Tam1; test: as above; settings: 4-OH-tamoxifen in medium 1 µM; 72 h
Method: as §1

[7] = test system: T-47D Tam2; test: as above; settings: 4-OH-tamoxifen in medium 1 µM; 72 h
Method: as §1

[8] = test system: ZR-75-1; test: as above; settings: 72 h
Method: as §1

[9] = test system: T-47D; test: as above; settings: 72 h
Method: as §1

[10] = test system: BT-474 Tam1; test: as above; settings: 4-OH-tamoxifen in medium 1 µM; 72 h
Method: as §1

[11] = test system: ZR-75-1 Tam2; test: as above; settings: 4-OH-tamoxifen in medium 1 µM; 72 h
Method: as §1

[12] = test system: MCF-7; test: relative IC50 (midpoint of fitted logistic curve, plateau may be below 50% inhibition; CellTiter-Glo viability); higher = less potent; settings: 72 h
Method: (§2)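 FIMM FO2B library drugs were plated at 5 concentrations spanning a 10,000-fold range in 384-well plates. Cells were incubated for 72 h at 37 °C and viability was read by CellTiter-Glo, normalised to DMSO (0% inhibition) and 100 µM benzethonium chloride (100% inhibition). IC50 values come from logistic dose-response fits (Breeze pipeline). Tamoxifen-resistant lines and the 'in 1µM tamoxifen' parental arms were tested in medium with 1 µM 4-OH-tamoxifen.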

[13] = test system: BT-474; test: as above; settings: 72 h
Method: as §2

[14] = test system: BT-474 Tam2; test: as above; settings: 4-OH-tamoxifen in medium 1 µM; 72 h
Method: as §2

[15] = test system: T-47D Tam1; test: as above; settings: 4-OH-tamoxifen in medium 1 µM; 72 h
Method: as §2

[16] = test system: ZR-75-1 Tam1; test: as above; settings: 4-OH-tamoxifen in medium 1 µM; 72 h
Method: as §2

[17] = test system: ZR-75-1; test: as above; settings: 72 h
Method: as §2

[18] = test system: T-47D; test: as above; settings: 72 h
Method: as §2

[19] = test system: BT-474 Tam1; test: as above; settings: 4-OH-tamoxifen in medium 1 µM; 72 h
Method: as §2

[20] = test system: ZR-75-1 Tam2; test: as above; settings: 4-OH-tamoxifen in medium 1 µM; 72 h
Method: as §2

[21] = test system: MCF-7 Tam1; test: as above; settings: 4-OH-tamoxifen in medium 1 µM; 72 h
Method: as §2

Structure (SMILES) | relative IC50 ([13]; 4-OH-tamoxifen in medium 0 µM) | relative IC50 ([13]; 4-OH-tamoxifen in medium 1 µM) | relative IC50 [14] | relative IC50 ([18]; 4-OH-tamoxifen in medium 0 µM) | relative IC50 [21] | relative IC50 ([18]; 4-OH-tamoxifen in medium 1 µM) | drug sensitivity score ([1]; 4-OH-tamoxifen in medium 0 µM) | drug sensitivity score ([1]; 4-OH-tamoxifen in medium 1 µM) | drug sensitivity score ([2]; 4-OH-tamoxifen in medium 0 µM) | drug sensitivity score ([2]; 4-OH-tamoxifen in medium 1 µM) | drug sensitivity score [3] | drug sensitivity score [4] | drug sensitivity score [5] | drug sensitivity score [6] | drug sensitivity score [7] | drug sensitivity score ([8]; 4-OH-tamoxifen in medium 0 µM) | drug sensitivity score ([8]; 4-OH-tamoxifen in medium 1 µM) | drug sensitivity score ([9]; 4-OH-tamoxifen in medium 0 µM) | drug sensitivity score ([9]; 4-OH-tamoxifen in medium 1 µM) | drug sensitivity score [10] | drug sensitivity score [11] | relative IC50 ([12]; 4-OH-tamoxifen in medium 0 µM) | relative IC50 ([12]; 4-OH-tamoxifen in medium 1 µM) | relative IC50 [15] | relative IC50 [16] | relative IC50 ([17]; 4-OH-tamoxifen in medium 1 µM) | relative IC50 [19] | relative IC50 [20] | relative IC50 ([17]; 4-OH-tamoxifen in medium 0 µM)
Cc1sc2c(c1C)C(c1ccc(Cl)cc1)=N[C@@H](CC(=O)OC(C)(C)C)c1nnc(C)n1-2 [(+)JQ1] | 0.136 µM | 1.06 µM | 1.12 µM | 0.345 µM |  |  | 12.8 | 6.92 | 6.3 | 7.87 | 0.216 | 8.29 | 11 | 7.1 | 2.91 | 3.81 | 4.27 | 5.63 | 2.13 | 8.34 | 6.24 | 0.189 µM | 0.851 µM | 0.146 µM | 0.238 µM | 0.359 µM | 1.14 µM | 0.336 µM | 
O=C(Nc1ccncc1)C(=O)c1cn(Cc2ccc(Cl)cc2)c2ccccc12 [Indibulin] |  | 0.474 µM |  | > 10 µM | > 10 µM |  | 8.82 | 6.28 | 0.543 | 4.58 | 0 | 3.18 | 3.37 | 0.0575 | 0.194 | 0.997 | 0 | 0 | 0.395 | 0 | 0.106 | 0.032 µM | 0.189 µM |  |  | > 10 µM | > 10 µM |  | 
COc1cc2/c(=N/c3ccc(Br)cc3F)nc[nH]c2cc1OCC1CCN(C)CC1 [Vandetanib  (ZD6474, Zactima)] | > 1 µM | > 1 µM |  | > 1 µM | > 1 µM | > 1 µM | 0.65 | 0.193 | 0 | 0 | 0 | 0.605 | 0.009 | 0 | 1.6 | 0 | 0 | 0 | 0 | 0.381 | 0 |  |  |  | > 1 µM | > 1 µM |  | > 1 µM | > 1 µM
O=C1NC(=O)[C@@H](c2cn3c4c(cccc24)CCC3)[C@@H]1c1c[nH]c2ccccc12 [Tivatinib (ARQ 197)] | 0.401 µM | 0.223 µM |  | 0.364 µM | > 1 µM |  | 3.81 | 0.0182 | 1.2 | 3.08 | 0 | 0 | 0.827 | 0 | 0.839 | 0.524 | 0 | 1.88 | 0 | 0.142 | 0 |  |  |  | > 1 µM |  |  | > 1 µM | 

Second part, led by results:

relative IC50 ([13]; 4-OH-tamoxifen in medium 0 µM) | relative IC50 ([13]; 4-OH-tamoxifen in medium 1 µM) | relative IC50 [14] | relative IC50 ([18]; 4-OH-tamoxifen in medium 0 µM) | relative IC50 [21] | relative IC50 ([18]; 4-OH-tamoxifen in medium 1 µM) | Structure (SMILES) | drug sensitivity score ([1]; 4-OH-tamoxifen in medium 0 µM) | drug sensitivity score ([1]; 4-OH-tamoxifen in medium 1 µM) | drug sensitivity score ([2]; 4-OH-tamoxifen in medium 0 µM) | drug sensitivity score ([2]; 4-OH-tamoxifen in medium 1 µM) | drug sensitivity score [3] | drug sensitivity score [4] | drug sensitivity score [5] | drug sensitivity score [6] | drug sensitivity score [7] | drug sensitivity score ([8]; 4-OH-tamoxifen in medium 0 µM) | drug sensitivity score ([8]; 4-OH-tamoxifen in medium 1 µM) | drug sensitivity score ([9]; 4-OH-tamoxifen in medium 0 µM) | drug sensitivity score ([9]; 4-OH-tamoxifen in medium 1 µM) | drug sensitivity score [10] | drug sensitivity score [11] | relative IC50 ([12]; 4-OH-tamoxifen in medium 0 µM) | relative IC50 ([12]; 4-OH-tamoxifen in medium 1 µM) | relative IC50 [15] | relative IC50 [16] | relative IC50 ([17]; 4-OH-tamoxifen in medium 1 µM) | relative IC50 [19] | relative IC50 [20] | relative IC50 ([17]; 4-OH-tamoxifen in medium 0 µM)
> 10 µM |  | > 10 µM |  | > 10 µM | > 10 µM | Cc1ccc(-n2nc(C(C)(C)C)cc2NC(=O)Nc2ccc(OCCN3CCOCC3)c3ccccc23)cc1 [Doramapimod (BIRB 796)] | 0.173 | 0.239 | 0 | 0.211 | 0 | 0 | 0.342 | 0 | 1.06 | 0 | 0 | 0 | 0 | 1.04 | 0 |  |  |  | > 10 µM | > 10 µM |  | > 10 µM | > 10 µM
> 10 µM |  | 4.07 µM | > 10 µM | > 10 µM |  | Cc1cc(C(C)Nc2ccccc2)c2nc(N3CCOCC3)cc(=O)n2c1 (stereo unspecified) [TGX-221] | 1.97 | 2.11 | 0 | 0.562 | 0 | 1.6 | 0.102 | 9.5 | 0.389 | 13.2 | 11 | 0 | 0.16 | 1.23 | 14.3 |  |  |  | 0.193 µM | 0.0748 µM |  | 0.104 µM | 0.0743 µM
> 1 µM | > 1 µM | > 1 µM | > 1 µM | > 1 µM | > 1 µM | Nc1nc(Cl)nc2c1ncn2[C@H]1C[C@H](O)[C@@H](CO)O1 [Cladribine] | 0 | 0 | 0 | 0 | 0 | 0 | 0.899 | 0.538 | 0 | 0.0944 | 0.126 | 0 | 0 | 0 | 1.16 | > 1 µM | > 1 µM |  |  |  | > 1 µM |  | 
> 10 µM |  |  |  | > 10 µM |  | CC(C)Cn1cnc2c(N)nc3ccccc3c21 [Imiquimod] | 0 | 0.399 | 0 | 0.268 | 0 | 0 | 1.59 | 0 | 0.195 | 0 | 0 | 0.182 | 0 | 0 | 0 | > 10 µM |  |  | > 10 µM | > 10 µM | > 10 µM | > 10 µM | > 10 µM
